Reference: the supplement of paper PMC11451515

Tested on: P12-Ichikawa
Test: cell viability relative to DMSO control; higher = less cytotoxic
Settings: 48 h
Method in brief: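 NOMO1 or SEM (500 cells/well) or P12-Ichikawa (1000 cells/well) leukemia cells were adapted for at least four passages in each medium. They were seeded in 1536-well plates (5 μl) and pin-dosed with library compounds in DMSO over an 11-point threefold series, 47 μM to 0.79 nM. CellTiter-Glo One luminescence was read after 48 h at 37°C. Viability is the per-plate percentage relative to DMSO wells, with cell-free wells as background.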

[1] = HPLM + 10% dialyzed FBS, 0.000781 µM
[2] = HPLM + 10% dialyzed FBS, 0.00234 µM
[3] = HPLM + 10% dialyzed FBS, 0.00702 µM
[4] = HPLM + 10% dialyzed FBS, 0.0211 µM
[5] = HPLM + 10% dialyzed FBS, 0.0632 µM
[6] = HPLM + 10% dialyzed FBS, 0.19 µM
[7] = HPLM + 10% dialyzed FBS, 0.569 µM
[8] = HPLM + 10% dialyzed FBS, 1.71 µM
[9] = HPLM + 10% dialyzed FBS, 5.12 µM
[10] = HPLM + 10% dialyzed FBS, 15.4 µM
[11] = HPLM + 10% dialyzed FBS, 46.1 µM
[12] = RPMI 5 mM glucose + 10% FBS, 0.000781 µM
[13] = RPMI 5 mM glucose + 10% FBS, 0.00234 µM
[14] = RPMI 5 mM glucose + 10% FBS, 0.00702 µM
[15] = RPMI 5 mM glucose + 10% FBS, 0.0211 µM
[16] = RPMI 5 mM glucose + 10% FBS, 0.0632 µM
[17] = RPMI 5 mM glucose + 10% FBS, 0.19 µM
[18] = RPMI 5 mM glucose + 10% FBS, 0.569 µM
[19] = RPMI 5 mM glucose + 10% FBS, 1.71 µM
[20] = RPMI 5 mM glucose + 10% FBS, 5.12 µM
[21] = RPMI 5 mM glucose + 10% FBS, 15.4 µM
[22] = RPMI 5 mM glucose + 10% FBS, 46.1 µM
[23] = RPMI 5 mM glucose + 10% dialyzed FBS, 0.000781 µM
[24] = RPMI 5 mM glucose + 10% dialyzed FBS, 0.00234 µM
[25] = RPMI 5 mM glucose + 10% dialyzed FBS, 0.00702 µM
[26] = RPMI 5 mM glucose + 10% dialyzed FBS, 0.0211 µM
[27] = RPMI 5 mM glucose + 10% dialyzed FBS, 0.0632 µM
[28] = RPMI 5 mM glucose + 10% dialyzed FBS, 0.19 µM
[29] = RPMI 5 mM glucose + 10% dialyzed FBS, 0.569 µM
[30] = RPMI 5 mM glucose + 10% dialyzed FBS, 1.71 µM
[31] = RPMI 5 mM glucose + 10% dialyzed FBS, 5.12 µM
[32] = RPMI 5 mM glucose + 10% dialyzed FBS, 15.4 µM
[33] = RPMI 5 mM glucose + 10% dialyzed FBS, 46.1 µM

With `NC(=O)NO` the cell viability [1] was 85.4%, the cell viability [2] was 102% and the cell viability [3] was 100%. The cell viability [4] was 100%, the cell viability [5] was 94.3% and the cell viability [6] was 99.6%. It also gave a cell viability [7] of 102%, a cell viability [8] of 104% and a cell viability [9] of 72.4%. For the same compound, the cell viability [10] was 28.8%, the cell viability [11] was 2.02% and the cell viability [12] was 83.7%. It also gave a cell viability [13] of 103%, a cell viability [14] of 91.4% and a cell viability [15] of 90.8%. For the same compound, the cell viability [16] was 98.7%, the cell viability [17] was 98.5% and the cell viability [18] was 91.2%. It also gave a cell viability [19] of 90.9%, a cell viability [20] of 77.1% and a cell viability [21] of 43.6%. The cell viability [22] was 0.136%, the cell viability [23] was 88.4% and the cell viability [24] was 88.3%. For the same compound, the cell viability [25] was 87.7%, the cell viability [26] was 91.4% and the cell viability [27] was 92.2%. For the same compound, the cell viability [28] was 96%, the cell viability [29] was 94.1% and the cell viability [30] was 87.2%. For the same compound, the cell viability [31] was 65.2%, the cell viability [32] was 22.9% and the cell viability [33] was 2.61%.

`C=CCc1ccc(O)c(-c2ccc(O)c(CC=C)c2)c1` gave a cell viability [1] of 112%, a cell viability [2] of 113% and a cell viability [4] of 113%. It also gave a cell viability [5] of 119%, a cell viability [6] of 28.9% and a cell viability [7] of 13.7%. For the same compound, the cell viability [9] was 9.66%, the cell viability [10] was 11.3% and the cell viability [11] was 18.2%. For the same compound, the cell viability [12] was 109%, the cell viability [13] was 110% and the cell viability [14] was 110%. It also gave a cell viability [15] of 113%, a cell viability [16] of 120% and a cell viability [17] of 120%. It also gave a cell viability [18] of 118%, a cell viability [19] of 17.5% and a cell viability [20] of 14.9%. The cell viability [21] was 13.7%, the cell viability [22] was 11% and the cell viability [23] was 105%. The cell viability [24] was 116%, the cell viability [25] was 113% and the cell viability [26] was 115%. For the same compound, the cell viability [27] was 122%, the cell viability [28] was 113% and the cell viability [29] was 63.9%. For the same compound, the cell viability [30] was 25.6%, the cell viability [31] was 18.4% and the cell viability [32] was 21.3%. For the same compound, the cell viability [33] was 21.2%.

`Nc1nc(Cl)nc2c1ncn2[C@@H]1O[C@H](CO)[C@@H](O)[C@@H]1F` gave a cell viability [1] of 18.2%, a cell viability [2] of 55.1% and a cell viability [3] of 15.7%. The cell viability [4] was 16.3%, the cell viability [5] was 18.8% and the cell viability [6] was 15.4%. It also gave a cell viability [7] of 15.2%, a cell viability [8] of 11.8% and a cell viability [9] of 13.5%. It also gave a cell viability [10] of 10.6%, a cell viability [11] of 8.95% and a cell viability [12] of 32.2%. It also gave a cell viability [13] of 50%, a cell viability [14] of 15.6% and a cell viability [15] of 14.8%. The cell viability [16] was 16.3%, the cell viability [17] was 13.6% and the cell viability [18] was 10.6%. The cell viability [19] was 9.04%, the cell viability [20] was 8.02% and the cell viability [21] was 9.03%. For the same compound, the cell viability [22] was 5.68%, the cell viability [23] was 28.4% and the cell viability [24] was 37.2%. It also gave a cell viability [25] of 24.4%, a cell viability [26] of 23.5% and a cell viability [27] of 24.7%. It also gave a cell viability [28] of 24.6%, a cell viability [29] of 21.2% and a cell viability [30] of 24.3%. It also gave a cell viability [31] of 19%, a cell viability [32] of 20.3% and a cell viability [33] of 17.5%.

`CC[C@]1(O)C[C@@H]2CN(CCc3c([nH]c4ccccc34)[C@@](C(=O)OC)(c3cc4c(cc3OC)N(C)[C@H]3[C@@](O)(C(N)=O)[C@H](O)[C@]5(CC)C=CCN6CC[C@]43[C@@H]65)C2)C1` showed a cell viability [1] of 112%, a cell viability [2] of 109% and a cell viability [3] of 112%. It also gave a cell viability [4] of 97.5%, a cell viability [5] of 78.4% and a cell viability [6] of 18.3%. It also gave a cell viability [7] of 20.5%, a cell viability [8] of 14.2% and a cell viability [9] of 7.56%. The cell viability [10] was 7.86%, the cell viability [11] was 9.96% and the cell viability [12] was 109%. For the same compound, the cell viability [13] was 115%, the cell viability [14] was 115% and the cell viability [15] was 98.6%. For the same compound, the cell viability [16] was 65.8%, the cell viability [17] was 16.7% and the cell viability [18] was 22.7%. For the same compound, the cell viability [19] was 14%, the cell viability [20] was 8.37% and the cell viability [21] was 6.73%. For the same compound, the cell viability [22] was 6.12%, the cell viability [23] was 111% and the cell viability [24] was 103%. For the same compound, the cell viability [25] was 106%, the cell viability [26] was 104% and the cell viability [27] was 101%. It also gave a cell viability [28] of 34.3%, a cell viability [29] of 22.8% and a cell viability [30] of 29.1%. For the same compound, the cell viability [31] was 13.8%, the cell viability [32] was 10.1% and the cell viability [33] was 11.5%.

`N#C/N=C(\NCCCCCCOc1ccc(Cl)cc1)Nc1ccncc1` showed a cell viability [1] of 92.5%, a cell viability [2] of 30.8% and a cell viability [3] of 7.9%. It also gave a cell viability [4] of 7.51%, a cell viability [5] of 7.45% and a cell viability [6] of 6.55%. It also gave a cell viability [7] of 6.06%, a cell viability [8] of 4.77% and a cell viability [9] of 5.75%. It also gave a cell viability [10] of 5.32%, a cell viability [11] of 2.54% and a cell viability [12] of 101%. The cell viability [13] was 66.3%, the cell viability [14] was 8.62% and the cell viability [15] was 9.03%. For the same compound, the cell viability [16] was 8.69%, the cell viability [17] was 8.93% and the cell viability [18] was 8.18%. For the same compound, the cell viability [19] was 6.73%, the cell viability [20] was 5.76% and the cell viability [21] was 5.53%. The cell viability [22] was 3.94%, the cell viability [23] was 117% and the cell viability [24] was 45.9%. For the same compound, the cell viability [25] was 8.98%, the cell viability [26] was 8.5% and the cell viability [27] was 8.43%. The cell viability [28] was 8.45%, the cell viability [29] was 8.57% and the cell viability [30] was 6.65%. The cell viability [31] was 6.26%, the cell viability [32] was 5.72% and the cell viability [33] was 2.79%.

`CN1CCN(CCOc2cc(OC3CCOCC3)c3c(Nc4c(Cl)ccc5c4OCO5)ncnc3c2)CC1` showed a cell viability [1] of 121%, a cell viability [2] of 125% and a cell viability [3] of 130%. The cell viability [4] was 134%, the cell viability [5] was 130% and the cell viability [6] was 128%. It also gave a cell viability [7] of 136%, a cell viability [8] of 124% and a cell viability [9] of 101%. The cell viability [10] was 32.3% and the cell viability [11] was 20%.

Work on `CNC(=O)Nc1ccc(-c2nc(N3CC4CCC(C3)O4)c3cnn(C4CCC5(CC4)OCCO5)c3n2)cc1` yielded a cell viability [1] of 107%, a cell viability [2] of 106% and a cell viability [3] of 95.7%. It also gave a cell viability [4] of 92.5%, a cell viability [5] of 95.4% and a cell viability [6] of 82.7%. The cell viability [7] was 86.1%, the cell viability [8] was 76.7% and the cell viability [9] was 74.2%. For the same compound, the cell viability [10] was 74.9%, the cell viability [11] was 72.5% and the cell viability [12] was 96.9%. The cell viability [13] was 84.1%, the cell viability [14] was 75.8% and the cell viability [15] was 75.5%. For the same compound, the cell viability [16] was 69.8%, the cell viability [17] was 65.8% and the cell viability [18] was 64.2%. It also gave a cell viability [19] of 60.8%, a cell viability [20] of 57.1% and a cell viability [21] of 49.6%. It also gave a cell viability [22] of 53%, a cell viability [23] of 106% and a cell viability [24] of 98%. For the same compound, the cell viability [25] was 91.1%, the cell viability [26] was 82.1% and the cell viability [27] was 81.8%. The cell viability [28] was 70.5%, the cell viability [29] was 67.4% and the cell viability [30] was 65.2%. For the same compound, the cell viability [31] was 56.8%, the cell viability [32] was 44.8% and the cell viability [33] was 50.9%.
